Results as given in ChEMBL document CHEMBL1201862, “PubChem BioAssay data set” (2004).
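Test compounds were applied to cells in 96-well plates for 48 hours at 5 doses. GI50: concentration for 50% inhibition of growth.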 The source made the active and inactive calls. Cut-off read from the data, not from the text of the source: active = GI50 up to about 1.1 µM and inactive = higher.

Assays:
Assay in all cases: DTP human tumour cell line panel, 48 h
[1] = test system: M14
[2] = test system: OVCAR-3
[3] = test system: HT-29
[4] = test system: LOX IMVI
[5] = test system: SK-MEL-2
[6] = test system: U-251
[7] = test system: Hs-578T
[8] = test system: SF-539
[9] = test system: SK-MEL-5
[10] = test system: UO-31
[11] = test system: COLO 205
[12] = test system: NCI-H460
[13] = test system: SK-MEL-28
[14] = test system: SNB-75
[15] = test system: SNB-19
[16] = test system: PC-3
[17] = test system: NCI/ADR-RES
[18] = test system: RXF 393
[19] = test system: K562
[20] = test system: UACC-62

Measured: GI50

O=C(CCCCCCC(=O)Nc1cccnc1)NO [PYROXAMIDE]
inactive: [1] 4.45 µM | [2] 2.86 µM | [3] 3.14 µM | [4] 7.29 µM | [5] 2.72 µM | [6] 4.76 µM | [7] 5.15 µM | [8] 3.09 µM | [9] 1.21 µM | [10] 6.5 µM | [11] 2.77 µM | [12] 2.82 µM | [13] 4.4 µM | [14] 18.1 µM | [15] 16.1 µM | [16] 7.26 µM | [17] 1.81 µM | [18] 5.89 µM | [19] 4.26 µM | [20] 3.34 µM
